Data: ChEMBL document CHEMBL1949526, “Cyclic hydroxyamidines as amide isosteres: discovery of oxadiazolines and oxadiazines as potent and highly efficacious γ-secretase modulators in vivo” (J Med Chem, 2012)

Tests used:
[1] = biological target: Gamma-secretase; test: Modulation of gamma-secretase-mediated cleavage of human APP Swedish and London mutation expressed in HEK293 cells assessed as reduction of total amyloid beta level after 5 hrs by sandwich immunoassay; format: cell-based
[2] = Cmax in rat at 10 mg/kg, po; format: ADME, organism-based; design: dose 10 mg/kg, route oral; conditions: in vivo
[3] = Dissociation constant, pKa of the compound; format: physicochemical
[4] = Half life in monkey at 3 mg/kg, iv; format: ADME, organism-based, Macaca mulatta; design: dose 3 mg/kg, route intravenous; conditions: rhesus monkey, in vivo
[5] = Oral bioavailability in monkey at 10 mg/kg; format: ADME, organism-based, Macaca mulatta; conditions: rhesus monkey, in vivo
[6] = biological target: T1, Nuclear receptor subfamily 1 group I member 2 (Homo sapiens, UniProt O75469); test: Induction of human PXR
T1 sequence (O75469 whole entry): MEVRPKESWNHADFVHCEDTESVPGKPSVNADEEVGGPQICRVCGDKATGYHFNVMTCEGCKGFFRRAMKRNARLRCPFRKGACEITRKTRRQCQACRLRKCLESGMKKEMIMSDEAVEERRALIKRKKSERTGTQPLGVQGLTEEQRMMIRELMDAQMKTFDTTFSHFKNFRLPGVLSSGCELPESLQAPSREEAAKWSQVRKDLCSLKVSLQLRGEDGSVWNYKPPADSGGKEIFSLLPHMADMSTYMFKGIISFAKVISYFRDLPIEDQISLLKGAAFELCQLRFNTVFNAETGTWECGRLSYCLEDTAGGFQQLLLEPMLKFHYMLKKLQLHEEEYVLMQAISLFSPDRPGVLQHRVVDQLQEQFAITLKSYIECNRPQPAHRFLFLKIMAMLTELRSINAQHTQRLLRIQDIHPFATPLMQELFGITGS

[7] = species on record: Homo sapiens; test: Cardiotoxicity in human assessed as QT prolongation; format: toxicity, organism-based; conditions: in vivo
[8] = Efflux ratio of permeability from basolateral to apical side over apical to basolateral side in human Caco2 cells; format: ADME, cell-based; conditions: Caco-2
[9] = biological target: Cytochrome P450 2C9 (Homo sapiens, UniProt P11712); test: Inhibition of human CYP2C9; format: ADME
Sequence of Cytochrome P450 2C9 (P11712 whole entry): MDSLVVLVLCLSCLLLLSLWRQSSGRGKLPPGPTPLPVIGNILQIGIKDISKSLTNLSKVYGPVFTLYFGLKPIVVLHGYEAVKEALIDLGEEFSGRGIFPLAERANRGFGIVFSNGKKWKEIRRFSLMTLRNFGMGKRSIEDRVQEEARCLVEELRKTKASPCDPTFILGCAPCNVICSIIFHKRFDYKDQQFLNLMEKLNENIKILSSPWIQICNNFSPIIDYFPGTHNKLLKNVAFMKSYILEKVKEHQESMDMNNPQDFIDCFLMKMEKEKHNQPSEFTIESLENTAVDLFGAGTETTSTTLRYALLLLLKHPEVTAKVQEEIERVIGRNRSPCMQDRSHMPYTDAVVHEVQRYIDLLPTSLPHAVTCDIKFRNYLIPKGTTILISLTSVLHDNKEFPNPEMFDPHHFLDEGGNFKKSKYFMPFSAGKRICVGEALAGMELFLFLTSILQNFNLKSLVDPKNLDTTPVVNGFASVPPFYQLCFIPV

[10] = Half life in dog at 3 mg/kg, iv; format: ADME, organism-based, Canis lupus familiaris; design: dose 3 mg/kg, route intravenous; conditions: in vivo
[11] = test system: Rattus norvegicus; test: Antialzheimer activity in rat assessed as reduction in amyloid beta42 level in CSF at 10 mg/kg, po after 3 hrs; format: functional; design: scale not given: the % may be the effect or the level left
[12] = Volume of distribution at steady state in monkey at 3 mg/kg, iv; format: ADME, organism-based, Macaca mulatta; design: dose 3 mg/kg, route intravenous; conditions: rhesus monkey, in vivo, read-out: Vdss
[13] = biological target: Gamma-secretase; test: Modulation of gamma-secretase-mediated cleavage of human APP Swedish and London mutation expressed in HEK293 cells assessed as inhibition of amyloid beta40 production after 5 hrs by sandwich immunoassay; format: cell-based
[14] = Half life in rat at 3 mg/kg, iv; format: ADME, organism-based; design: dose 3 mg/kg, route intravenous; conditions: in vivo
[15] = Drug level in rat brain at 3 mg/kg, po after 3 hrs; format: ADME, organism-based; design: dose 3 mg/kg, route oral; conditions: read-out: Drug uptake
[16] = biological target: Cytochrome P450 3A4 (Homo sapiens, UniProt P08684); test: Inhibition of human CYP3A4; format: ADME
Sequence of Cytochrome P450 3A4 (P08684 whole entry): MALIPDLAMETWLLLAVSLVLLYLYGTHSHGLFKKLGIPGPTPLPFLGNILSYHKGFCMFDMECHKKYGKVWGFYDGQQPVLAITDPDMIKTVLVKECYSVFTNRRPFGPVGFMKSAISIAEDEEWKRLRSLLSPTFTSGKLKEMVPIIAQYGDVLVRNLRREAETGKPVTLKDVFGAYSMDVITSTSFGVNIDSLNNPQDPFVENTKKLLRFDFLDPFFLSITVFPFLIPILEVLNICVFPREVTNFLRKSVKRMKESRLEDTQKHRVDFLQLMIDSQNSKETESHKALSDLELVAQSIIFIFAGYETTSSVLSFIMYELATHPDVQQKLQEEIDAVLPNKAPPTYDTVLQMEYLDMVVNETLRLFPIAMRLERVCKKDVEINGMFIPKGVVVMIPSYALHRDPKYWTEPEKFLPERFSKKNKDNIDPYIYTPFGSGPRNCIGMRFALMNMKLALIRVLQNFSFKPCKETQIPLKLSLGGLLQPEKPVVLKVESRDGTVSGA

[17] = AUC in monkey at 10 mg/kg, po; format: ADME, organism-based, Macaca mulatta; design: dose 10 mg/kg, route oral; conditions: rhesus monkey, plasma
[18] = Permeability from apical to basolateral side of human Caco2 cells; format: ADME, cell-based; conditions: Caco-2, read-out: permeability
[19] = Drug level in rat brain at 10 mg/kg, po after 3 hrs; format: ADME, organism-based; design: dose 10 mg/kg, route oral; conditions: read-out: Drug uptake
[20] = test system: Canis familiaris; test: Oral bioavailability in dog at 10 mg/kg; format: ADME, organism-based, Canis lupus familiaris; conditions: in vivo
[21] = test system: Rattus norvegicus; test: Oral bioavailability in rat at 10 mg/kg; format: ADME, organism-based; conditions: in vivo
[22] = biological target: Cytochrome P450 2D6 (Homo sapiens, UniProt P10635); test: Inhibition of human CYP2D6; format: ADME
Sequence of Cytochrome P450 2D6 (P10635 whole entry): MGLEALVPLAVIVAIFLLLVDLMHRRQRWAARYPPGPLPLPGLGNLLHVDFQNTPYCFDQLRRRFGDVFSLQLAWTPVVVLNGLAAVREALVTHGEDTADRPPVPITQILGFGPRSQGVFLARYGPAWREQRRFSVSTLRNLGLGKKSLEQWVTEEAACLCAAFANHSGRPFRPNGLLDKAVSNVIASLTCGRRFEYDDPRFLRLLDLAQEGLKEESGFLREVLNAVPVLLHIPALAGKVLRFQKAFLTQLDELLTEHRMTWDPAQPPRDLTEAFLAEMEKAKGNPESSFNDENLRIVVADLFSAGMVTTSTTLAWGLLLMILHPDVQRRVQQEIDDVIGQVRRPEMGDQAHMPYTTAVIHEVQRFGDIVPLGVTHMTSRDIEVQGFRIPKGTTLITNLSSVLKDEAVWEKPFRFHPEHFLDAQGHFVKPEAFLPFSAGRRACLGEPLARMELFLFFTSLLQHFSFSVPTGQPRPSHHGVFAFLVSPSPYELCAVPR

[23] = test system: Canis familiaris; test: AUC in dog at 10 mg/kg, po; format: ADME, organism-based, Canis lupus familiaris, Plasma; design: dose 10 mg/kg, route oral; conditions: in vivo
[24] = species on record: Canis familiaris; test: Cardiotoxicity in dog assessed as effect on electrocardiographic QTc interval at compound concentration required for pharmacological effect; format: toxicity, organism-based, Canis lupus familiaris; conditions: in vivo
[25] = test system: Rattus norvegicus; test: Antialzheimer activity in rat assessed as reduction in amyloid beta42 level in CSF at 3 mg/kg, po after 3 hrs; format: functional; design: scale not given: the % may be the effect or the level left
[26] = Volume of distribution at steady state in rat at 3 mg/kg, iv; format: ADME, organism-based; design: dose 3 mg/kg, route intravenous; conditions: in vivo, read-out: Vdss
[27] = biological target: Gamma-secretase (Homo sapiens) (UniProt Q96BI3+Q9NZ42+Q8WW43+P49768+Q92542+P49810); test: Modulation of gamma-secretase-mediated cleavage of human APP Swedish and London mutation expressed in HEK293 cells assessed as reduction of total amyloid beta/amyloid beta42 ratio after 5 hrs by sandwich immunoassay; format: cell-based
[28] = test system: Rattus norvegicus; test: AUC in rat at 10 mg/kg, po; format: ADME, organism-based, Plasma; design: dose 10 mg/kg, route oral; conditions: in vivo
[29] = Volume of distribution at steady state in dog at 3 mg/kg, iv; format: ADME, organism-based, Canis lupus familiaris; design: dose 3 mg/kg, route intravenous; conditions: in vivo, read-out: Vdss
[30] = Cmax in monkey at 10 mg/kg, po; format: ADME, organism-based, Macaca mulatta; design: dose 10 mg/kg, route oral; conditions: rhesus monkey, in vivo
[31] = biological target: Gamma-secretase; test: Modulation of gamma-secretase-mediated cleavage of human APP Swedish and London mutation expressed in HEK293 cells assessed as inhibition of amyloid beta42 production after 5 hrs by sandwich immunoassay; format: cell-based
[32] = Clearance in monkey at 3 mg/kg, iv; format: ADME, organism-based, Macaca mulatta; design: dose 3 mg/kg, route intravenous; conditions: rhesus monkey, in vivo
[33] = test system: Rattus norvegicus; test: Antialzheimer activity in po dosed rat assessed as reduction in amyloid beta42 level in CSF after 3 hrs; format: functional, organism-based
[34] = Cmax in dog at 10 mg/kg, po; format: ADME, organism-based, Canis lupus familiaris; design: dose 10 mg/kg, route oral; conditions: in vivo
[35] = biological target: Voltage-gated inwardly rectifying potassium channel KCNH2 (Homo sapiens, UniProt Q12809); test: Inhibition of human ERG by cell based voltage clamp assay
Sequence of Voltage-gated inwardly rectifying potassium channel KCNH2 (Q12809 whole entry): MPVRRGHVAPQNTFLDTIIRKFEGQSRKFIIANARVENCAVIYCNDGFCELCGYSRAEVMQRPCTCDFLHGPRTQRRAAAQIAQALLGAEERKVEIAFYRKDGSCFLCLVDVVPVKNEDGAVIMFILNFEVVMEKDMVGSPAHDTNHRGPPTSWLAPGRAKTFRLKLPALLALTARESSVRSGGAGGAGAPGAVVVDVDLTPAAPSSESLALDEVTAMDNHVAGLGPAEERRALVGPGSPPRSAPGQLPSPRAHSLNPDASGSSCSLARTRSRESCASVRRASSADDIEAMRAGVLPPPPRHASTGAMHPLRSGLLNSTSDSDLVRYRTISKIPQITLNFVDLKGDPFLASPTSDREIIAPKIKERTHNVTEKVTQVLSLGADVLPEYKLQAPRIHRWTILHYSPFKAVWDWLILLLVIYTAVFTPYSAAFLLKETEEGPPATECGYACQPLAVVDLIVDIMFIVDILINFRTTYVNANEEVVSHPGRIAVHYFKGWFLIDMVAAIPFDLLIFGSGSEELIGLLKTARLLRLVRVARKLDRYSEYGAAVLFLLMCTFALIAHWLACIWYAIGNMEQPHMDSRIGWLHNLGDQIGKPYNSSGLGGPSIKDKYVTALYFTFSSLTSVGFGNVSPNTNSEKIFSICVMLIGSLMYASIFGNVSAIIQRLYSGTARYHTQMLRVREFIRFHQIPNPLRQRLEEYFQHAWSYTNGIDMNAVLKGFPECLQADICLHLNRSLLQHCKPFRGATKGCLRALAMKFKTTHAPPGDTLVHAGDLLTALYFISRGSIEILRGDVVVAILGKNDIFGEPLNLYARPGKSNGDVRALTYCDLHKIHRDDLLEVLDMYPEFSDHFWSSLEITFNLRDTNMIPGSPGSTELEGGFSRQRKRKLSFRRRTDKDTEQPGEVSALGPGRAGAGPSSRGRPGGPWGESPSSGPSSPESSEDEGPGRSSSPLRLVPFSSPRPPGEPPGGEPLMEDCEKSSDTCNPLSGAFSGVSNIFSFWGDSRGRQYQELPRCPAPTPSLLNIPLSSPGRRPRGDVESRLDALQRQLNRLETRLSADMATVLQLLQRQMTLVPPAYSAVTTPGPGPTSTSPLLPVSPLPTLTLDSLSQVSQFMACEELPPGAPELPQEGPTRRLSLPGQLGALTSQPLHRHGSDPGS

- IC50 [1]: 13700 nM
- Cmax [2]: 4.9 µM
- pKa [3]: 6.7
- half-life [4]: 2 h
- bioavailability [5]: 57%
- Activity [6]: Not Active
- efflux ratio [8]: 0.6
- inhibition (INH) [9]: Not Active
- half-life [10]: 1.7 h
- Vd [12]: 1 L/kg
- IC50 [13]: 267 nM
- half-life [14]: 2.5 h
- concentration at 3 h [15]: 0.8 µM
- inhibition (INH) [16]: Not Active
- AUC [17]: 30 µM·h
- Papp A→B [18]: 34.6 ×10⁻⁶ cm/s
- concentration at 3 h [19]: 5 µM
- F [20]: 69%
- F [21]: 78%
- inhibition (INH) [22]: Not Active
- AUC [23]: 27 µM·h
- Vd [26]: 1.6 L/kg
- Ratio IC50 [27]: 237
- AUC [28]: 19 µM·h
- Vd [29]: 2.2 L/kg
- Cmax [30]: 5.6 µM
- IC50 [31]: 58 nM
- clearance [32]: 7.3 mL/min/kg
- Cmax [34]: 5.3 µM
Structure (SMILES): COc1cc(/C=C2\CCCN3C2=NOC3(C)c2ccc(F)cc2)ccc1-n1cnc(C)c1 (single isomer, unassigned)
- Activity [7]: Toxic
- Activity [11]: 51%
- Activity [24]: Non-toxic
- Activity [25]: 30%
- Activity [33]: Dose-dependent effect
- IC50 [35]: 740 nM
